Source: publication PMC11696576, “Next generation thiazolyl ketone inhibitors of cytosolic phospholipase A2 α for targeted cancer therapy” (Nature Communications, 2025)
“And” between values parts separate entries of the source, which are not always exact repeats. Identical values can stand only once. Like-named read-outs stand apart in the source and are kept apart here.

Legend:
[1] = system: isolated human PBMCs; assay: eicosanoid release from A23187-stimulated PBMCs (ELISA); assay type: cell-based; design: 6-Keto PGF1a / 12-HETE: unit not given here; conditions: for LTB4 level, PBMCs / PGE2 level, PBMCs / TxB2 level, PBMCs: A23187, individual replicate; for 6-Keto PGF1a: A23187 stimulated; for IC50: Homo sapiens, PBMC, 0.25 h, 30 µM A23187 15 min
Description: In PBMCs, the calcium ionophore A23187 stimulated the release of PGE2, TXB2, LTB4, 6-keto prostaglandin F1α (PGF1α), and 12-HETE.
PBMCs were isolated from buffy coats using Lymphoprep as described by the manufacturer ([…] Technologies, Vancouver, Canada). Red blood cells were lysed and removed using RBC lysis buffer (Roche, Basel, Switzerland) and the remaining cells were resuspended in 10 mL of RPMI-1640 supplemented with 5% FBS. The TC20 automated cell counter (BIO-RAD, Hercules, California, USA) was used to count the number of cells and check the viability by staining with trypan blue (0.4%) (NanoEnTek, Waltham, MA, USA). For experiments, 5 × 10^5 cells were seeded in 0.5 mL in 24 well plates with RPMI medium supplemented with 5% FBS, 0.3 mg/mL glutamine, and 0.1 mg/mL gentamicin. Cells were preincubated with inhibitors for 2 h before incubating with 30 µM Ca^2+ ionophore A23187 for 15 min to activate cPLA2α. After incubation, the supernatant was obtained by centrifugation at 5992 × g for 10 min at 4° and stored at −80 °C until assayed for PGE2, LTB4, TxB2, 6-Keto PGF1α, and 12S-HETE using enzyme-linked immunosorbent assays (ELISAs) (Cayman #514435, Cayman #10009292, Cayman #501020, Cayman #15210, and Enzo Lifesciences #ADI-900-050). After an overnight hybridization, the enzymatic conversion of substrate was read at OD420 nm using a Cytation 5 multimode platereader (Biotek Instruments, Winooski, VT, USA). Standard curves fit using 4-parameter logistic regression in myassays.com were used to calculate eicosanoid concentrations.

[2] = system: CCRF-CEM cells; assay: cell viability, CTG assay, CCRF-CEM; conditions: for cell viability (0 µM = 100): listed as AVX420; for cell viability (Control = 100): VEH
Description: Data are the mean ± stdev of 3 biological replicates. c Viability of healthy T-cells measured by propidium iodide (PI) exclusion. Data are the mean ± stdev of 8 biological replicates for 1–16 µM AVX420, 5 for 32 µM AVX420 and 2 for 0.5 µM Staurosporine (Stau). d Cell viability measured by CTG assay in cells preincubated with 2.5 mM glutathione (GSH) or 2.5 mM N-acetyl cysteine (NAC) for 30 min before addition of 0.5 or 1 µM AVX420, 0.06 µM RSL-3, or 0.06 µM ML-210 for 24 h. Data are the mean ± stdev of 3 biological replicates. P-values were determined by one-way ANOVA with Dunnett’s correction for multiple testing and **** indicates P < 0.0001. e Cell viability measured by CTG assay. CCRF-CEM or Jurkat cells were co-treated with 0.5 µM AVX420 and either arachidonic acid (AA) at concentrations ranging from 1 to 100 µM or a mixture of 9 eicosanoids: 6-keto prostaglandin F1α, Thromboxane B2, prostaglandin F2α, prostaglandin E2, prostaglandin D2, 12(S)-HHTrE, 15(S)-HETE,12(S)-HETE, 5(S)-HETE at a final concentration of 2 ng/mL each (EIC-mix) for 24 h. Data are the mean ± stdev of 3 biological replicates. P-values were determined by two-way ANOVA with Sidak’s correction for multiple comparisons. f Proportion of intracellular ROS-positive cells measured by ROS-red staining and flow cytometry. Cells were treated with indicated concentrations of AVX420 (µM), 1 mM H2O2, 1 µM RSL-3, or 1 µM doxorubicin (dox) for 4 h. Data are the mean ± stdev of 3 biological replicates. g Intracellular ROS measurements in CCRF-CEM cells treated with AVX420 (0.5 µM), AVX002 (8 µM), or AACOCF3 (8 µM) for 4 h.
All cell lines were confirmed to be free of mycoplasma contamination. The cell lines were not authenticated. MV-4-11 were cultured in Iscove’s Modified Dulbecco’s Medium (Sigma, I3390). CCRF-CEM, Jurkat E6.1, and HL-60 cells were cultured in RPMI 1640 Medium RPMI-1640 medium (Sigma, R5886).

Compound: CCCCCCCOc1ccc(OCC(=O)c2nc(C(=O)OC)cs2)cc1 [GK420]
- LTB4 level, PBMCs ([1]; 0.5 µM): 429.9 pg/mL and 749.3 pg/mL and 255.6 pg/mL and 605.5 pg/mL
- PGE2 level, PBMCs ([1]; 0.5 µM): 169.2 pg/mL and 38.5 pg/mL and 267.8 pg/mL and 309 pg/mL
- TxB2 level, PBMCs ([1]; 0.5 µM): 8408.2 pg/mL and 1252.3 pg/mL and 13129.8 pg/mL and 13753.8 pg/mL
- 6-Keto PGF1a ([1]; 0.5 µM): 21.6 and 26.4
- LTB4 level, PBMCs ([1]; 1 µM): 370.9 pg/mL and 289.7 pg/mL and 718.4 pg/mL and 239.1 pg/mL
- PGE2 level, PBMCs ([1]; 1 µM): 247.2 pg/mL and 134.2 pg/mL and 36.8 pg/mL and 244.2 pg/mL
- TxB2 level, PBMCs ([1]; 1 µM): 11110.6 pg/mL and 8481.1 pg/mL and 1330.2 pg/mL and 14838.7 pg/mL
- 6-Keto PGF1a ([1]; 1 µM): 16.6 and 27.5
- LTB4 level, PBMCs ([1]; 2.5 µM): 144.2 pg/mL and 219 pg/mL and 387.5 pg/mL and 190 pg/mL
- PGE2 level, PBMCs ([1]; 2.5 µM): 238.2 pg/mL and 102.2 pg/mL and 66 pg/mL and 196.8 pg/mL
- TxB2 level, PBMCs ([1]; 2.5 µM): 7528.6 pg/mL and 7919.2 pg/mL and 1078.1 pg/mL and 10138.3 pg/mL
- 6-Keto PGF1a ([1]; 2.5 µM): 15.1 and 17.9
- LTB4 level, PBMCs ([1]; 5 µM): 107.5 pg/mL and 125.8 pg/mL and 244.5 pg/mL and 111.7 pg/mL
- PGE2 level, PBMCs ([1]; 5 µM): 149.4 pg/mL and 71.6 pg/mL and 38.8 pg/mL and 141.2 pg/mL
- TxB2 level, PBMCs ([1]; 5 µM): 4591 pg/mL and 3235.3 pg/mL and 764.8 pg/mL and 7035.5 pg/mL
- 6-Keto PGF1a ([1]; 5 µM): 16.9 and 21.1
- LTB4 level, PBMCs ([1]; 10 µM): 64.7 pg/mL and 93.8 pg/mL and 115.3 pg/mL and 64.3 pg/mL
- PGE2 level, PBMCs ([1]; 10 µM): 129 pg/mL and 52.7 pg/mL and 30.5 pg/mL and 67 pg/mL
- TxB2 level, PBMCs ([1]; 10 µM): 2621.7 pg/mL and 1488.5 pg/mL and 633.4 pg/mL and 3277.7 pg/mL
- IC50 ([1]; PBMCs, read-out: IC50 LTB4 inhibition): 317 nM
- IC50 ([1]; PBMCs, read-out: IC50 PGE2 inhibition): 1100 nM
- IC50 ([1]; PBMCs, read-out: IC50 TXB2 inhibition): 2200 nM
- effect on 6-keto PGF1α and 12-HETE ([1]; PBMCs, A23187, IC50 values could not be calculated): tendency to suppress
- cell viability (0 µM = 100) ([2]; 0.007 µM, 24H): 100
- cell viability (0 µM = 100) ([2]; 0.015 µM, 24H): 90
- cell viability (0 µM = 100) ([2]; 0.015 µM, 72H): 81
- cell viability (0 µM = 100) ([2]; 0.031 µM, 24H): 99
- cell viability (0 µM = 100) ([2]; 0.062 µM, 24H): 103
- cell viability (0 µM = 100) ([2]; 0.062 µM, 48H): 84
- cell viability (0 µM = 100) ([2]; 0.062 µM, 72H): 70
- cell viability (0 µM = 100) ([2]; 0.125 µM, 72H): 45 and 46
- cell viability (0 µM = 100) ([2]; 0.25 µM, 24H): 69 and 65
- cell viability (0 µM = 100) ([2]; 0.25 µM, 48H): 43
- cell viability (0 µM = 100) ([2]; 0.25 µM, 72H): 16 and 24
- cell viability (0 µM = 100) ([2]; 0.5 µM, 24H): 42 and 39
- cell viability (0 µM = 100) ([2]; 0.5 µM, 48H): 19
- cell viability (0 µM = 100) ([2]; 0.5 µM, 72H): 5.44 and 10
- cell viability (Control = 100) ([2]; 0.5 µM, listed as AVX420, 0.5 µM): 56 and 50
- cell viability (0 µM = 100) ([2]; 1 µM, 24H): 23
- cell viability (0 µM = 100) ([2]; 1 µM, 48H): 10
- cell viability (0 µM = 100) ([2]; 1 µM, 72H): 3 and 4.53
- cell viability (Control = 100) ([2]; 1 µM, listed as AVX420, 1 µM): 38
- cell viability (0 µM = 100) ([2]; 2 µM, 24H): 11
- cell viability (0 µM = 100) ([2]; 2 µM, 48H): 3 and 2
- cell viability (0 µM = 100) ([2]; 2 µM, 72H): 1.13
- cell viability (0 µM = 100) ([2]; 4 µM, 72H): 0.147
- effect on viability ([2]; CTG): strong dose-dependent effect
- viability at 0.007 µM ([2]; Homo sapiens, 24 h, read-out: cell viability (0 µM = 100), CCRF-CEM, 0.007 µM, 24H): 98%
- viability at 0.015 µM ([2]; Homo sapiens, 24 h, read-out: cell viability (0 µM = 100), CCRF-CEM, 0.015 µM, 24H): 98%
- viability at 0.031 µM ([2]; Homo sapiens, 24 h, read-out: cell viability (0 µM = 100), CCRF-CEM, 0.031 µM, 24H): 98%
- viability at 0.062 µM ([2]; Homo sapiens, 24 h, read-out: cell viability (0 µM = 100), CCRF-CEM, 0.062 µM, 24H): 98%
- viability at 0.25 µM ([2]; Homo sapiens, 24 h, read-out: cell viability (0 µM = 100), CCRF-CEM, 0.25 µM, 24H): 68%
- viability at 0.5 µM ([2]; Homo sapiens, 24 h, read-out: cell viability (0 µM = 100), CCRF-CEM, 0.5 µM, 24H): 49%
- viability at 1 µM ([2]; Homo sapiens, 24 h, read-out: cell viability (0 µM = 100), CCRF-CEM, 1 µM, 24H): 27%
- viability at 2 µM ([2]; Homo sapiens, 24 h, read-out: cell viability (0 µM = 100), CCRF-CEM, 2 µM, 24H): 14%
- viability at 0.007 µM ([2]; Homo sapiens, 48 h, read-out: cell viability (0 µM = 100), CCRF-CEM, 0.007 µM, 48H): 94%
- viability at 0.015 µM ([2]; Homo sapiens, 48 h, read-out: cell viability (0 µM = 100), CCRF-CEM, 0.015 µM, 48H): 95%
- viability at 0.031 µM ([2]; Homo sapiens, 48 h, read-out: cell viability (0 µM = 100), CCRF-CEM, 0.031 µM, 48H): 87%
- viability at 0.062 µM ([2]; Homo sapiens, 48 h, read-out: cell viability (0 µM = 100), CCRF-CEM, 0.062 µM, 48H): 85%
- viability at 0.125 µM ([2]; Homo sapiens, 48 h, read-out: cell viability (0 µM = 100), CCRF-CEM, 0.125 µM, 48H): 67%
- viability at 0.25 µM ([2]; Homo sapiens, 48 h, read-out: cell viability (0 µM = 100), CCRF-CEM, 0.25 µM, 48H): 41%
- viability at 0.5 µM ([2]; Homo sapiens, 48 h, read-out: cell viability (0 µM = 100), CCRF-CEM, 0.5 µM, 48H): 17%
- viability at 1 µM ([2]; Homo sapiens, 48 h, read-out: cell viability (0 µM = 100), CCRF-CEM, 1 µM, 48H): 9%
- viability at 2 µM ([2]; Homo sapiens, 48 h, read-out: cell viability (0 µM = 100), CCRF-CEM, 2 µM, 48H): 4%
- viability at 0.007 µM ([2]; Homo sapiens, 72 h, read-out: cell viability (0 µM = 100), CCRF-CEM, 0.007 µM, 72H): 82%
- viability at 0.015 µM ([2]; Homo sapiens, 72 h, read-out: cell viability (0 µM = 100), CCRF-CEM, 0.015 µM, 72H): 78%
- viability at 0.031 µM ([2]; Homo sapiens, 72 h, read-out: cell viability (0 µM = 100), CCRF-CEM, 0.031 µM, 72H): 76%
- viability at 0.062 µM ([2]; Homo sapiens, 72 h, read-out: cell viability (0 µM = 100), CCRF-CEM, 0.062 µM, 72H): 67%
- viability at 0.125 µM ([2]; Homo sapiens, 72 h, read-out: cell viability (0 µM = 100), CCRF-CEM, 0.125 µM, 72H): 40%
- viability at 0.25 µM ([2]; Homo sapiens, 72 h, read-out: cell viability (0 µM = 100), CCRF-CEM, 0.25 µM, 72H): 21%
- viability at 0.5 µM ([2]; Homo sapiens, 72 h, read-out: cell viability (0 µM = 100), CCRF-CEM, 0.5 µM, 72H): 7%
- viability at 1 µM ([2]; Homo sapiens, 72 h, read-out: cell viability (0 µM = 100), CCRF-CEM, 1 µM, 72H): 3.38%
- viability at 2 µM ([2]; Homo sapiens, 72 h, read-out: cell viability (0 µM = 100), CCRF-CEM, 2 µM, 72H): 1%
- viability at 4 µM ([2]; Homo sapiens, 72 h, read-out: cell viability (0 µM = 100), CCRF-CEM, 4 µM, 72H): 0.214%
- viability at 0.5 µM ([2]; Homo sapiens, read-out: cell viability (Control = 100), CCRF-CEM, 0.5 µM, VEH): 52%
- viability at 1 µM ([2]; Homo sapiens, read-out: cell viability (Control = 100), CCRF-CEM, 1 µM, VEH): 37%
